Data as given in ChEMBL document CHEMBL5036307, “Antimalarial Quinacrine and Chloroquine Lose Their Activity by Decreasing Cationic Amphiphilic Structure with a Slight Decrease in pH” (J Med Chem, 2021).
Values belong to the compound of their own block, whether it stands above or below them. Calls of active or inactive are those of the source. The rule behind the calls is not given here.

Legend:
Saccharomyces cerevisiae [1] = assay: Antimicrobial activity against Saccharomyces cerevisiae BY4741 assessed as inhibition of microbial growth at 60 mM at pH 6 in presence of glucose measured after 48 hrs by visual analysis; assay type: functional, organism-based
Saccharomyces cerevisiae [2] = assay: Antimicrobial activity against Saccharomyces cerevisiae BY4741 assessed as inhibition of microbial growth at pH 8 in presence of glucose measured after 48 hrs by visual analysis; assay type: functional
Saccharomyces cerevisiae [3] = assay: Antimicrobial activity against Saccharomyces cerevisiae BY4741 assessed as inhibition of microbial growth at pH 7 in presence of glucose measured after 48 hrs by visual analysis; assay type: functional
Saccharomyces cerevisiae [4] = assay: Ratio of antimicrobial activity against Saccharomyces cerevisiae BY4741 at pH 7 to antimicrobial activity against Saccharomyces cerevisiae BY4741 at pH 8; assay type: functional
Saccharomyces cerevisiae [5] = assay: Inhibition HXT2 in Saccharomyces cerevisiae using 2DG as substrate assessed as reduction in 2DG uptake by measuring Km at 125 uM at pH 7.5 by Michaelis-Menten analysis (Rvb= 0.76 +/- 0.03 mM)
[6] = Inhibition HXT2 in Saccharomyces cerevisiae using 2DG as substrate assessed as reduction in 2DG uptake at pH 7.5 preincubated for 10 min followed by substrate addition and measured after 10 min by glucose uptake-Glo assay
Saccharomyces cerevisiae [7] = assay: Ratio of antimicrobial activity against Saccharomyces cerevisiae BY4741 at pH 6 to antimicrobial activity against Saccharomyces cerevisiae BY4741 at pH 8; assay type: functional
Saccharomyces cerevisiae [8] = assay: Antimicrobial activity against Saccharomyces cerevisiae BY4741 assessed as inhibition of microbial growth at pH 6 in presence of glucose measured after 48 hrs by visual analysis; assay type: functional
Saccharomyces cerevisiae [9] = assay: Inhibition HXT2 in Saccharomyces cerevisiae using 2DG as substrate assessed as reduction in 2DG uptake by measuring Km at 75 uM at pH 7.5 by Michaelis-Menten analysis (Rvb= 0.76 +/- 0.03 mM)
Saccharomyces cerevisiae [10] = assay: Inhibition HXT2 in Saccharomyces cerevisiae using 2DG as substrate assessed as reduction in 2DG uptake by measuring decrease in Vmax at 125 uM at pH 7.5 by Michaelis-Menten analysis (Rvb= 211 +/- 9 nmol/min)
[11] = Inhibition HXT2 in Saccharomyces cerevisiae using 2DG as substrate assessed as inhibition of 2DG uptake at pH 6 preincubated for 10 min followed by substrate addition and measured after 10 min by glucose uptake-Glo assay
Saccharomyces cerevisiae [12] = assay: Inhibition HXT2 in Saccharomyces cerevisiae using 2DG as substrate assessed as reduction in 2DG uptake by measuring decrease in Vmax at 75 uM at pH 7.5 by Michaelis-Menten analysis (Rvb= 211 +/- 9 nmol/min)
Cell membrane [13] = assay: Induction of membrane disruption in Saccharomyces cerevisiae BY4741 assessed as cell lysis by measuring increase in extracellular ATP level at pH 7.5 in presence of 2% glucose incubated for 30 mins
Saccharomyces cerevisiae [14] = assay: Antimicrobial activity against Saccharomyces cerevisiae BY4741 assessed as inhibition of microbial growth at 50 mM at pH 5 in presence of glucose measured after 48 hrs by visual analysis; assay type: functional, organism-based
Saccharomyces cerevisiae [15] = assay: Inhibition of endocytosis in Saccharomyces cerevisiae BY4741 from plasma to vacuoles assessed as formation of discrete granules at 25 mM incubated for 2 hrs by FM4-64 staining based analysis; assay type: functional, organism-based
Saccharomyces cerevisiae [16] = assay: Inhibition HXT2 in Saccharomyces cerevisiae using 2DG as substrate assessed as reduction in 2DG uptake by measuring decrease in Vmax at 0.2 mM at pH 7.5 by Michaelis-Menten analysis (Rvb= 208 +/- 7 nmol/min)
Cell membrane [17] = assay: Induction of membrane disruption in Saccharomyces cerevisiae BY4741 assessed as cell lysis by measuring increase in extracellular ATP level at pH 7.5 in presence of 8% glucose incubated for 30 mins
Cell membrane [18] = assay: Induction of membrane disruption in Saccharomyces cerevisiae BY4741 at 50 mM incubated for 2 hrs by FM4-64 staining based analysis; assay type: subcellular
Saccharomyces cerevisiae [19] = assay: Inhibition HXT2 in Saccharomyces cerevisiae using 2DG as substrate assessed as reduction in 2DG uptake by measuring Km at 0.2 mM at pH 7.5 by Michaelis-Menten analysis (Rvb=0.76 +/- 0.08 mM)
[20] = Inhibition of actin polarization in Saccharomyces cerevisiae BY4741 at pH 7.5 incubated for 30 mins in presence of 2% glucose by rhodamine phalloidin staining based confocal microscopic analysis
Saccharomyces cerevisiae [21] = assay: Inhibition HXT2 in Saccharomyces cerevisiae using 2DG as substrate assessed as reduction in 2DG uptake by measuring Km at 0.6 mM at pH 7.5 by Michaelis-Menten analysis (Rvb= 0.76 +/- 0.08 mM)
Saccharomyces cerevisiae [22] = assay: Antimicrobial activity against saccharomyces cerevisiae BY4741 assessed as inhibition of translation initiation by measuring polysme/monosome ratio at 1.5 mM at pH 7.5 incubated for 30 mins in presence of 8% glucose by polysome analysis (Rvb= 1.94); assay type: functional; conditions: 0.5 h
[23] = system: Saccharomyces cerevisiae BY4741; assay: Inhibition of actin polarization in Saccharomyces cerevisiae BY4741 at pH 6 incubated for 30 mins in presence of 2% glucose by rhodamine phalloidin staining based confocal microscopic analysis
Saccharomyces cerevisiae [24] = assay: Antimicrobial activity against saccharomyces cerevisiae BY4741 assessed as inhibition of translation initiation by measuring polysme/monosome ratio at 1.5 mM at pH 7.5 incubated for 30 mins in presence of 2% glucose by polysome analysis (Rvb= 1.74); assay type: functional; conditions: 0.5 h
Saccharomyces cerevisiae [25] = assay: Inhibition HXT2 in Saccharomyces cerevisiae using 2DG as substrate assessed as reduction in 2DG uptake by measuring decrease in Vmax at 0.6 mM at pH 7.5 by Michaelis-Menten analysis (Rvb= 208 +/- 7 nmol/min)
[26] = Inhibition of actin polarization in Saccharomyces cerevisiae BY4741 at pH 7.5 incubated for 30 mins in presence of 8% glucose by rhodamine phalloidin staining based confocal microscopic analysis

MIC (Saccharomyces cerevisiae [2]): 520 µM
MIC (Saccharomyces cerevisiae [3]): 15000 µM
Structure (SMILES): CCN(CC)CCCC(C)Nc1ccnc2cc(Cl)ccc12 (stereo unspecified) [CHLOROQUINE]
Activity (Saccharomyces cerevisiae [1]): inactive
Ratio (Saccharomyces cerevisiae [4]): 30

Km (Saccharomyces cerevisiae [5]): 710 µM
IC50 [6]: 115 µM
MIC (Saccharomyces cerevisiae [2]): 15 µM
MIC (Saccharomyces cerevisiae [8]): 250 µM
MIC (Saccharomyces cerevisiae [3]): 31 µM
Km (Saccharomyces cerevisiae [9]): 630 µM
Vmax (Saccharomyces cerevisiae [10]): 63 nmol/min
IC50 [11]: 259 µM
Vmax (Saccharomyces cerevisiae [12]): 126 nmol/min
Structure (SMILES): CN(C)CCCN1c2ccccc2Sc2ccc(Cl)cc21 [CHLORPROMAZINE]
Ratio (Saccharomyces cerevisiae [7]): 16
Ratio (Saccharomyces cerevisiae [4]): 2

Activity (Cell membrane [13]): 21.6 mM
Vmax (Saccharomyces cerevisiae [16]): 158 nmol/min
Activity (Cell membrane [17]): 37 mM
IC50 [6]: 370 µM
Activity (Cell membrane [18]): Active
Km (Saccharomyces cerevisiae [19]): 770 µM
IC50 [20]: 1000 µM
Km (Saccharomyces cerevisiae [21]): 750 µM
MIC (Saccharomyces cerevisiae [2]): 83 µM
MIC (Saccharomyces cerevisiae [8]): 50000 µM
MIC (Saccharomyces cerevisiae [3]): 2.5 µM
inhibition [23]: inactive
IC50 [11]: 3490 µM
Vmax (Saccharomyces cerevisiae [25]): 113 nmol/min
IC50 [26]: 1600 µM
Structure (SMILES): CCN(CC)CCCC(C)Nc1c2ccc(Cl)cc2nc2ccc(OC)cc12 (stereo unspecified) [QUINACRINE]
Activity (Saccharomyces cerevisiae [14]): inactive
inhibition (Saccharomyces cerevisiae [15]): Active
Ratio (Saccharomyces cerevisiae [7]): 600
Ratio (Saccharomyces cerevisiae [22]): 1.69
Ratio (Saccharomyces cerevisiae [24]): 1.53
Ratio (Saccharomyces cerevisiae [4]): 30
